Experimental findings from ChEMBL document CHEMBL3259781 (J Med Chem, 2014) are described below.

Converted amounts (≈) assume the structure as drawn. “And” between values parts separate entries of the source, which are not always exact repeats. Identical values can stand only once.

Series [1] addresses T1, Adenosine receptor A1 (Homo sapiens, UniProt P30542).
T1 sequence (P30542 whole entry): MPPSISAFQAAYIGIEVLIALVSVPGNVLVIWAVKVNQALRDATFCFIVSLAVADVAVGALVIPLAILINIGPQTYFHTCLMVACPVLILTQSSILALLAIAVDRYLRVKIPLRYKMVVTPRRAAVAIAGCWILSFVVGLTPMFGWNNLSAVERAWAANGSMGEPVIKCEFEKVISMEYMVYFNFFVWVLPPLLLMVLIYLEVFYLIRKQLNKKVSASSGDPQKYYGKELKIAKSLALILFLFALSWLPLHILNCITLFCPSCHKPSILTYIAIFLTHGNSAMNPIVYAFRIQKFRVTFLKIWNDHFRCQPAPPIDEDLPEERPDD

The nature of series [2]: AUC in rat at 3 mg/kg, po. In kind it is ADME, organism-based. The arrangement: dose 3 mg/kg, route oral. The conditions noted are these: plasma.
Series [3] addresses T2, Adenosine receptor A2a (Homo sapiens, UniProt P29274).
Another series addresses T3, Adenosine receptor A2b (Homo sapiens, UniProt P29275).
T3 sequence (P29275 whole entry): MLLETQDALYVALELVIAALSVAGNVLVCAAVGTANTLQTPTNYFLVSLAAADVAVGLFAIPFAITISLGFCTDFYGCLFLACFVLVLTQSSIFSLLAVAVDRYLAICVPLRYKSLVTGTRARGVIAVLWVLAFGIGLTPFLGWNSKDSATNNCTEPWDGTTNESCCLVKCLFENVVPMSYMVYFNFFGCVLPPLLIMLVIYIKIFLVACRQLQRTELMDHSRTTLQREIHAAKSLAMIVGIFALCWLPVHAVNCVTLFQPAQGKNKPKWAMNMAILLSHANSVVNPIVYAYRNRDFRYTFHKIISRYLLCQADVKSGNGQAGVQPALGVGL

Series [4] is filed under the species Rattus norvegicus. Description: Anticataleptic activity in rat assessed as minimum efficacious dose after 4 hrs. In kind it is functional. The conditions noted are these: read-out: MED.
Series [5] can be described thus: Ratio of drug level from brain to plasma in rat. To be noted: read-out: BPR. In kind it is ADME.
The test system of series [6] is Rattus norvegicus. Description: Anticataleptic activity in rat assessed as inhibition at 1 mg/kg, po after 4 hrs. In kind it is functional.
For series [7], the species on record is Rattus norvegicus. In words: Anticataleptic activity in rat assessed as minimum efficacious dose after 1 hr. The format is functional. To be noted: read-out: MED.
The test system of series [8] is Rattus norvegicus. In words: Anticataleptic activity in rat assessed as inhibition at 1 mg/kg, po after 1 hr. The format is functional.
Series [9] concerns the target T4, Adenosine receptor A3 (Homo sapiens, UniProt P0DMS8).
T4 sequence (P0DMS8 whole entry): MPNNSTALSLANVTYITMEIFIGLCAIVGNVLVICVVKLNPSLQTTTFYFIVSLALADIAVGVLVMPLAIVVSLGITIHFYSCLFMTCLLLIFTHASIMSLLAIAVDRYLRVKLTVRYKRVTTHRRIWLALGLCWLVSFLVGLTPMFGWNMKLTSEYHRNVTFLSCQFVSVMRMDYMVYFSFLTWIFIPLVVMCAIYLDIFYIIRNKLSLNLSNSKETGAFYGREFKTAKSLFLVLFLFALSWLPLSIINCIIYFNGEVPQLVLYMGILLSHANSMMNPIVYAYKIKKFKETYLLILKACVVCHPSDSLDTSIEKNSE

The next series is filed under the species Homo sapiens. Description: Selectivity ratio of Ki for human recombinant adenosine A1 receptor to Ki for human recombinant adenosine receptor A2a.
For series [10], the species on record is Rattus norvegicus. Description: Selectivity ratio of Ki for rat striatal adenosine A1 receptor to Ki for rat recombinant adenosine receptor A2a.
Series [11] deals with T5, Adenosine receptor A1 (Rattus norvegicus, UniProt P25099).
T5 sequence (P25099 whole entry): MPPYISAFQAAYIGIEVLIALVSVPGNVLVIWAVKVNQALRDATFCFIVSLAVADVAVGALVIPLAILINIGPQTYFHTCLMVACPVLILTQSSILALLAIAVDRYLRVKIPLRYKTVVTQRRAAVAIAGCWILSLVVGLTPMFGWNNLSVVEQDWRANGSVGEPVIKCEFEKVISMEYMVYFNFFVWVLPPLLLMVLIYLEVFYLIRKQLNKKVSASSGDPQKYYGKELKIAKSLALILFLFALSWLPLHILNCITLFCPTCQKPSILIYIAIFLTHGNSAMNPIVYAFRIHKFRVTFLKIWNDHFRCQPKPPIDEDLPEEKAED

In the next series the test system is Brain. Description: Drug level in rat brain measured per gram at 10 mg/kg, po. The format is ADME, organism-based. Further details: dose 10 mg/kg, route oral. To be noted: in vivo.
For the next series, the system named is Plasma. Description: Drug level in rat plasma measured per ml at 10 mg/kg, po. The format is ADME, organism-based. Further details: dose 10 mg/kg, route oral. To be noted: in vivo.
The nature of series [12]: Solubility of the compound at pH 7.4. In kind it is physicochemical. The conditions noted are these: buffer.
Another series has as its system Mus musculus. Description: Anticataleptic activity in mouse assessed as inhibition of haloperidol-induced catalepsy at 10 mg/kg, po. In kind it is functional.
Series [13] addresses T2, Adenosine receptor A2a. The source holds these as a separate data set.
Series [14] concerns Rattus norvegicus. Description: Anticataleptic activity in rat assessed as inhibition of haloperidol-induced catalepsy at 3 mg/kg, po after 30 mins. To be noted: 0.5 h. The format is functional.
Series [15] has as its target T6, Adenosine receptor A3 (Rattus norvegicus, UniProt P28647).
T6 sequence (P28647 whole entry): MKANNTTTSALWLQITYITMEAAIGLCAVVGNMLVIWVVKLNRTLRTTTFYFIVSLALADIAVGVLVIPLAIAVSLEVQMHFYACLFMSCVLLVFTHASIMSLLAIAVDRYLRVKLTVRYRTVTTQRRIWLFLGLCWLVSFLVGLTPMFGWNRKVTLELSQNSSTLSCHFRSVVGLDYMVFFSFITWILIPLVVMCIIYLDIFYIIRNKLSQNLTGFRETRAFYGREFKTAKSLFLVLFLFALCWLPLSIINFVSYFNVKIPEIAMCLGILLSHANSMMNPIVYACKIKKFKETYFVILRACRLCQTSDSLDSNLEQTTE
In words: Inhibition of rat recombinant adenosine A3 receptor.

In series [16] the target is T7, Adenosine receptor A2a (Rattus norvegicus, UniProt P30543).
Series [17] is described as follows: Plasma clearance in dog. In kind it is ADME, organism-based, Canis lupus familiaris.
A short description of series [18]: Plasma clearance in rat. In kind it is ADME, organism-based.
Series [19] in a line: Half life in rat. In kind it is ADME, organism-based. To be noted: in vivo.
A short description of series [20]: Volume of distribution in rat. To be noted: in vivo. In kind it is ADME, organism-based.
Series [21] is described as follows: Volume of distribution in dog. The format is ADME, organism-based, Canis lupus familiaris. To be noted: in vivo.
Series [22] can be described thus: Half life in dog. The conditions noted are these: in vivo. In kind it is ADME, organism-based, Canis lupus familiaris.
The species entered for series [23] is Rattus norvegicus. Description: Systemic vasodilation in rat. The format is functional.
Series [24] concerns the target T2, Adenosine receptor A2a. The source holds these as a separate data set.
In series [25] the target is T4, Adenosine receptor A3. Description: Binding affinity to human recombinant adenosine A3 receptor.
Series [26] concerns the target T5, Adenosine receptor A1. Description: Binding affinity to rat recombinant adenosine A1 receptor.
Series [27] has as its target T7, Adenosine receptor A2a. In words: Binding affinity to adenosine receptor A2a in rat striatum. The format is tissue-based.
The species named for series [28] is Rattus norvegicus. Description: Anticataleptic activity in rat assessed as inhibition of haloperidol-induced catalepsy after 2 hrs. In kind it is functional.
The species named for series [29] is Rattus norvegicus. Description: Anticataleptic activity in rat assessed as inhibition of haloperidol-induced catalepsy after 1 hr. In kind it is functional.
The nature of series [30]: Ratio of drug level from brain to plasma in iv dosed rat after 0.5 hrs. In kind it is ADME, organism-based. The conditions noted are these: read-out: BPR.
Series [31] has as its target T7, Adenosine receptor A2a. In words: Binding affinity to rat recombinant adenosine receptor A2a.

T7 sequence (P30543 whole entry): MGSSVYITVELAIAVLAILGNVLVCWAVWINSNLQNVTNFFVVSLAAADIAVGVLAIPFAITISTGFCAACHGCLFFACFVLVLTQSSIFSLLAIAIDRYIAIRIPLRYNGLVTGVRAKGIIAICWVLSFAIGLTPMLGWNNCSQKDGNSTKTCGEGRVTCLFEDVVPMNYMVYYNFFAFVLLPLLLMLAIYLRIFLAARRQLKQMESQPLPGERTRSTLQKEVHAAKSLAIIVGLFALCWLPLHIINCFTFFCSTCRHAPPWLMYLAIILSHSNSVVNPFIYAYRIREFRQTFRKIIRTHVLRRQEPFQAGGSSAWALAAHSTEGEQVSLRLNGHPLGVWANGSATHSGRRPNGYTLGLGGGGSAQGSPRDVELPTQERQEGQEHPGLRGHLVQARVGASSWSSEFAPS
T2 sequence (P29274 whole entry): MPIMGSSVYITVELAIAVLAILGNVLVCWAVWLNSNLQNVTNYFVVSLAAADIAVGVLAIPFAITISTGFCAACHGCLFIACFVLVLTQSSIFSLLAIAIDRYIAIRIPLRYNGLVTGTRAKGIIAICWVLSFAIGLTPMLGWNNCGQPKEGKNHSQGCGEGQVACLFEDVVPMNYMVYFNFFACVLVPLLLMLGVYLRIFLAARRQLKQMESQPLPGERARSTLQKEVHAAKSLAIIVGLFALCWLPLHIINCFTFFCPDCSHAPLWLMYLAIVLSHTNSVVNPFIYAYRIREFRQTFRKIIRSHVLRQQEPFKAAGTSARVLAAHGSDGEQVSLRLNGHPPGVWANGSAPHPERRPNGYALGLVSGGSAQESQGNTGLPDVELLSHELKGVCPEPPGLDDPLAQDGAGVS

As for `COCCOc1ccc(N2CCN(CCn3ncc4c3nc(N)n3nc(-c5ccco5)nc43)CC2)cc1` [PRELADENANT], the Ki on Adenosine receptor A1 [1] was greater than 996 nM; at Adenosine receptor A2a [3], 0.6 nM; on Adenosine receptor A2b, greater than 1700 nM; on Adenosine receptor A3 [9], greater than 1000 nM. The compound also displayed an AUC in [2] of 1560 ng·h/mL. Moreover, the minimal effective dose in the series listed under Rattus norvegicus [4] and in the series listed under Rattus norvegicus [7] was 0.3 mg/kg each time. In addition, the Kp in series [5] stood at 1. For the same compound, the “inhibition (INH)” value with Rattus norvegicus [6] (1 mg/kg) was determined as 70%; in the series on Rattus norvegicus [8] (1 mg/kg), 77%. In addition, the inhibition in vivo at 1 mg/kg worked out at 80% in the series with Rattus norvegicus [6] (Rattus norvegicus, po, 4 h) and 75% in the series with Rattus norvegicus [8] (Rattus norvegicus, po, 1 h). Besides, the Ratio Ki in the series filed under Homo sapiens is > 1660 and 1340.
With `Nc1nc(NC[C@H]2CCCN2Cc2ccnc(Cl)c2)nc2nc(-c3ccco3)nn12`, the Ratio Ki in the series listed under Rattus norvegicus [10] was 63. On Adenosine receptor A1 [11], this compound came in with a Ki greater than 250 nM.
`COC1CCN(c2cccc(-c3cc(NC(C)=O)nc(-n4nc(C)cc4C)n3)n2)CC1`: the Ki at Adenosine receptor A1 [1] came out at 77.2 nM; on Adenosine receptor A2a [3], 0.4 nM. The compound further showed a Drug uptake in the series on Brain of 560 ng/g. Also, the Cp with Plasma was found to be 150 ng/mL. The solubility in series [12] stood at 30 µg/mL (≈ 71.2 µM). Also, the inhibition in vivo at 10 mg/kg in the series with Mus musculus was found to be 88%. In addition, the Ratio Ki in the series listed under Homo sapiens was 193.
Turning to `CCn1nnc([C@H]2O[C@@H](n3cnc4c(N)nc(N[C@H](CO)Cc5ccccc5)nc43)[C@H](O)[C@@H]2O)n1` [GW-328267], the EC50 on Adenosine receptor A2a [13] was determined as 9 nM.
Take `Nc1nc(N2CCN3CCC[C@@H]3C2)cc2nc(-c3ccco3)nn12`: the inhibition in vivo at 3 mg/kg with Rattus norvegicus [14] was greater than 50%. In the series listed under Rattus norvegicus [10], the Ratio Ki is 17.
As for `C#CCn1c(=O)c2c(nc(/C=C/c3cccc(OC)c3)n2C)n(CCCO)c1=O`, the inhibition constant (Ki) on Adenosine receptor A3 [15] is greater than 10000 nM; at Adenosine receptor A2b, 2900 nM; on Adenosine receptor A2a [16], 5 nM.
Take `COc1ccc(N2CCOCC2)c2sc(NC(=O)N3CCC(C)(O)CC3)nc12` [TOZADENANT]: the clearance in [17] stood at 8 mL/min/kg; in series [18], 11 mL/min/kg. Besides, the half-life was 4 h in series [19] and 2.2 h in [22]. The same compound came in with a Ki on Adenosine receptor A1 [1] of 1350 nM. For the same compound, the results for the Vd in series [20] and in series [21] were 1.4 L/kg and 1.2 L/kg, respectively.
In turn, `Nc1nc(N/N=C/C2CCCCC2)nc2c1ncn2[C@@H]1O[C@H](CO)[C@@H](O)[C@H]1O` [BINODENOSON] registered an ED50 in the series listed under Rattus norvegicus [23] of 0.31 mg.
Take `O=C(Nc1ccc(F)cc1)Nc1ccc(Nc2nc(-c3ccccc3)nc3c2nnn3Cc2ccccc2)cc1`: the Ki at Adenosine receptor A2a [24] turned out to be 167 nM; at Adenosine receptor A3 [25], 92 nM; on Adenosine receptor A1 [26], 107 nM.
The compound `Nc1nc2c(cnn2CCc2ccccc2)c2nc(-c3ccco3)nn12` [SCH-58261] yielded a Kd on Adenosine receptor A2a [27] of 0.7 nM. This compound displayed a Ki on Adenosine receptor A3 [9] of 1200 nM.
For `Cc1cc(-c2nnc(N)nc2-c2ccccc2)cc(C(F)(F)F)n1`, the ED50 in the series filed under Rattus norvegicus [28] and in the series filed under Rattus norvegicus [29] was 0.2 mg/kg throughout. At Adenosine receptor A1 [1], this compound registered a Ki of 31 nM. In addition, the Kp at 0.5 h in [30] was determined as 3.2.
As to `Nc1nc(Nc2ccccc2)nc2c1ncn2[C@@H]1O[C@H](CO)[C@@H](O)[C@H]1O`, the Ki on Adenosine receptor A2a [31] came to 100 nM.

What is called Ki is a dissociation constant, usually derived from enzyme kinetics or from competition with a known ligand. One may read the AUC as concentration integrated over time. As usually defined, the inhibition in vivo is the relative decrease from the control value, in per cent. The term solubility denotes the concentration that dissolves in the medium under given conditions. Low values mean a poorly soluble substance, high ones a readily soluble substance. What is called EC50 is the concentration at which the effect is half-maximal. Read a high EC50 as a need for much substance. As usually defined, the clearance is the rate of elimination divided by the concentration. One may read the half-life as the time in which the quantity being followed falls by half. Lower therefore signals fast loss. By Vd is commonly meant the apparent volume that relates the amount in the body to the concentration in plasma or blood. A word on the Kd: it is a measure of binding affinity in units of concentration.
